Assay results reported in PubChem BioAssay (NCI).
Several values for one entry are separate records, joined by “and”; a condition that tells them apart may be missing. Identical values can stand only once.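 The compound was tested at five concentrations on cells cultured in 96-well plates, with a 48-hour exposure period. The concentration for 50% growth inhibition is given as GI50. TGI denotes the concentration required for complete inhibition of growth.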

How the values were obtained:
Experiment in all cases: NCI tumour cell line growth inhibition, 48 h
786-0 renal = system: 786-0 renal
A549 NSCLC = system: A549 NSCLC
ACHN renal = system: ACHN renal
BT-549 breast = system: BT-549 breast
CAKI-1 renal = system: CAKI-1 renal
DLD-1 colon = system: DLD-1 colon
DMS 273 small cell lung = system: DMS 273 small cell lung
DU-145 prostate = system: DU-145 prostate
HCC-2998 colon = system: HCC-2998 colon
HCT-116 colon = system: HCT-116 colon
K-562 leukemia = system: K-562 leukemia
KM12 colon = system: KM12 colon
LXFL 529 NSCLC = system: LXFL 529 NSCLC
M14 melanoma = system: M14 melanoma
M19-MEL melanoma = system: M19-MEL melanoma
MCF7 breast = system: MCF7 breast
MDA-MB-231 breast = system: MDA-MB-231 breast
MDA-MB-435 = system: MDA-MB-435
MDA-N = system: MDA-N
NCI-H226 lung = system: NCI-H226 lung
NCI-H460 lung = system: NCI-H460 lung
NCI-H522 lung = system: NCI-H522 lung
NCI/ADR-RES ovarian = system: NCI/ADR-RES ovarian
OVCAR-5 ovarian = system: OVCAR-5 ovarian
OVCAR-8 ovarian = system: OVCAR-8 ovarian
P388 leukemia = system: P388 leukemia
P388/ADR leukemia = system: P388/ADR leukemia
PC-3 prostate = system: PC-3 prostate
RPMI-8226 leukemia = system: RPMI-8226 leukemia
RXF 393 renal = system: RXF 393 renal
RXF-631 renal = system: RXF-631 renal
SK-MEL-2 melanoma = system: SK-MEL-2 melanoma
SN12C renal = system: SN12C renal
SN12K1 renal = system: SN12K1 renal
SNB-75 CNS = system: SNB-75 CNS
SW-620 colon = system: SW-620 colon
T-47D breast = system: T-47D breast
TK-10 renal = system: TK-10 renal
UACC-62 melanoma = system: UACC-62 melanoma
A498 renal = system: A498 renal
CCRF-CEM leukemia = system: CCRF-CEM leukemia
COLO 205 colon = system: COLO 205 colon
DMS 114 small cell lung = system: DMS 114 small cell lung
EKVX NSCLC = system: EKVX NSCLC
HCT-15 colon = system: HCT-15 colon
HL-60(TB) leukemia = system: HL-60(TB) leukemia
HOP-18 NSCLC = system: HOP-18 NSCLC
HOP-62 NSCLC = system: HOP-62 NSCLC
HOP-92 NSCLC = system: HOP-92 NSCLC
HT29 colon = system: HT29 colon
IGROV1 ovarian = system: IGROV1 ovarian
KM20L2 colon = system: KM20L2 colon
LOX IMVI melanoma = system: LOX IMVI melanoma
MALME-3M melanoma = system: MALME-3M melanoma
MOLT-4 leukemia = system: MOLT-4 leukemia
NCI-H23 lung = system: NCI-H23 lung
OVCAR-3 ovarian = system: OVCAR-3 ovarian
OVCAR-4 ovarian = system: OVCAR-4 ovarian
SF-268 CNS = system: SF-268 CNS
SF-295 CNS = system: SF-295 CNS
SF-539 CNS = system: SF-539 CNS
SK-MEL-28 melanoma = system: SK-MEL-28 melanoma
SK-MEL-5 melanoma = system: SK-MEL-5 melanoma
SK-OV-3 ovarian = system: SK-OV-3 ovarian
SNB-19 CNS = system: SNB-19 CNS
SR leukemia = system: SR leukemia
U251 CNS = system: U251 CNS
UACC-257 melanoma = system: UACC-257 melanoma
UO-31 renal = system: UO-31 renal
XF 498 CNS = system: XF 498 CNS

## CC(=O)OC(C)(C)/C=C/C(=O)[C@](C)(O)[C@H]1[C@H](O)C[C@@]2(C)[C@@H]3CC=C4[C@@H](C=C(O)C(=O)C4(C)C)[C@]3(C)C(=O)C[C@]12C
786-0 renal
  GI50: 0.0154 µM
A549 NSCLC
  TGI: 6.51 µM and 1.23 µM and 2.65 µM
ACHN renal
  GI50: 0.0306 µM
  TGI: 0.25 µM and 0.0794 µM
BT-549 breast
  TGI: 0.0846 µM
CAKI-1 renal
  TGI: 44 nM [middle of 4 runs]
DLD-1 colon
  TGI: 4.25 µM and 4.43 µM and 2.19 µM
DMS 273 small cell lung
  TGI: 0.203 µM and 0.0544 µM and 0.1 µM
DU-145 prostate
  GI50: 0.0514 µM
  TGI: 0.0997 µM and 0.689 µM
HCC-2998 colon
  TGI: 1.56 µM and 0.542 µM and 0.962 µM
HCT-116 colon
  TGI: 1.39 µM [middle of 4 runs]
K-562 leukemia
  TGI: 4.97 µM and 9.17 µM and 14 µM
KM12 colon
  TGI: 5.61 µM and 3.46 µM and 4.83 µM
LXFL 529 NSCLC
  GI50: 0.018 µM
  TGI: 0.305 µM and 0.385 µM
M14 melanoma
  GI50: 0.0193 µM
  TGI: 0.722 µM and 1.01 µM
M19-MEL melanoma
  TGI: 4.2 µM and 3.01 µM and 3.43 µM
MCF7 breast
  TGI: 3.6 µM and 1.77 µM and 1.86 µM
MDA-MB-231 breast
  TGI: 3.39 µM
MDA-MB-435
  GI50: 0.0404 µM
  TGI: 0.194 µM
MDA-N
  TGI: 1.57 µM
NCI-H226 lung
  TGI: 93.7 nM [middle of 4 runs]
NCI-H460 lung
  TGI: 1.81 µM and 1.68 µM and 1.49 µM
NCI-H522 lung
  TGI: 196 nM [middle of 4 runs]
NCI/ADR-RES ovarian
  TGI: 5.45 µM and 6.12 µM and 5.39 µM
OVCAR-5 ovarian
  TGI: 6.67 µM and 4.02 µM and 1.09 µM
OVCAR-8 ovarian
  TGI: 5.35 µM and 2.14 µM and 3.28 µM
P388 leukemia
  GI50: 0.0895 µM
  TGI: 2.32 µM and 14.3 µM
P388/ADR leukemia
  GI50: 0.175 µM
  TGI: 3.04 µM and 2 µM
PC-3 prostate
  GI50: 0.0408 µM
  TGI: 1.48 µM
RPMI-8226 leukemia
  TGI: 771 nM [middle of 4 runs]
RXF 393 renal
  TGI: 46.1 nM [middle of 4 runs]
RXF-631 renal
  GI50: 0.018 µM
  TGI: 0.434 µM and 0.152 µM
SK-MEL-2 melanoma
  TGI: 64.9 nM [middle of 4 runs]
SN12C renal
  TGI: 3.34 µM and 1.52 µM and 0.938 µM
SN12K1 renal
  GI50: 0.0155 µM
  TGI: 0.287 µM and 0.0604 µM
SNB-75 CNS
  TGI: 42.7 nM [middle of 4 runs]
SW-620 colon
  TGI: 7.04 µM and 1.26 µM and 3.48 µM
T-47D breast
  TGI: 1.46 µM
TK-10 renal
  TGI: 0.15 µM and 0.204 µM
UACC-62 melanoma
  TGI: 1.56 µM and 0.806 µM and 1.17 µM

## COc1cc(/C=C/c2ccc(Br)cc2)cc(OC)c1OC
786-0 renal
  TGI: 52.9 µM
A498 renal
  TGI: > 56.6 µM
A549 NSCLC
  TGI: > 100 µM
ACHN renal
  TGI: > 100 µM
CAKI-1 renal
  TGI: > 87 µM
CCRF-CEM leukemia
  TGI: > 88 µM
COLO 205 colon
  TGI: 25.7 µM
DLD-1 colon
  TGI: > 100 µM
DMS 114 small cell lung
  TGI: 52.8 µM
DMS 273 small cell lung
  TGI: > 47.5 µM
EKVX NSCLC
  TGI: > 61.3 µM
HCC-2998 colon
  TGI: 28.1 µM
HCT-116 colon
  TGI: 17.1 µM
HCT-15 colon
  TGI: 61.1 µM
HL-60(TB) leukemia
  TGI: 19 µM
HOP-18 NSCLC
  TGI: > 74.6 µM
HOP-62 NSCLC
  TGI: 49.8 µM
HOP-92 NSCLC
  TGI: 72.3 µM
HT29 colon
  TGI: > 39.3 µM
IGROV1 ovarian
  TGI: > 100 µM
K-562 leukemia
  TGI: > 37.8 µM
KM12 colon
  TGI: 38 µM
KM20L2 colon
  TGI: 29.8 µM
LOX IMVI melanoma
  TGI: > 100 µM
LXFL 529 NSCLC
  TGI: > 100 µM
M14 melanoma
  TGI: 87.6 µM
M19-MEL melanoma
  TGI: > 71.5 µM
MALME-3M melanoma
  TGI: 76.2 µM
MOLT-4 leukemia
  TGI: 15.6 µM
NCI-H226 lung
  TGI: 56.6 µM
NCI-H23 lung
  TGI: > 81.2 µM
NCI-H460 lung
  TGI: 49.4 µM
NCI-H522 lung
  TGI: 46.1 µM
OVCAR-3 ovarian
  TGI: 26.4 µM
OVCAR-4 ovarian
  TGI: 87.1 µM
OVCAR-5 ovarian
  TGI: > 75.1 µM
OVCAR-8 ovarian
  TGI: 98.3 µM
RPMI-8226 leukemia
  TGI: 20.8 µM
RXF 393 renal
  TGI: 54.6 µM
RXF-631 renal
  TGI: > 75.4 µM
SF-268 CNS
  TGI: 31.2 µM
SF-295 CNS
  TGI: 40.2 µM
SF-539 CNS
  TGI: 31.9 µM
SK-MEL-2 melanoma
  TGI: 64.2 µM
SK-MEL-28 melanoma
  TGI: 48 µM
SK-MEL-5 melanoma
  TGI: 20.4 µM
SK-OV-3 ovarian
  TGI: > 89.9 µM
SN12C renal
  TGI: 71.8 µM
SNB-19 CNS
  TGI: > 100 µM
SNB-75 CNS
  TGI: 39.5 µM
SR leukemia
  TGI: > 100 µM
SW-620 colon
  TGI: > 100 µM
TK-10 renal
  TGI: > 100 µM
U251 CNS
  TGI: 30.7 µM
UACC-257 melanoma
  TGI: > 95.5 µM
UACC-62 melanoma
  TGI: > 72.1 µM
UO-31 renal
  TGI: 80.1 µM
XF 498 CNS
  TGI: 65.9 µM
